According to patent US11083735B2, “Methods for treating sleep disorders, sleep disturbances, and related symptoms using aminosterol compositions” (Enterin, Inc., priority 2017, dated 2021):

Columns and labels:
[1] = Pharmacokinetics of orally administered squalamine (ENT-01) in Stage 1; assay type: in vivo, human; settings: for AUC0-8 hr / AUC0-16 hr / Tmax (Median Value) / Cmax: Stage 1, oral; for Cmax: squalamine ion, mean
Experimental: Pharmakokinetics: PK data were collected on the 10 patients enrolled in Stage 1 and 10 patients enrolled in Stage 2 to determine the extent of systemic absorption. In Stage 1, PK data were obtained at each visit, pre-medication, at 1, 2, 4, 8 and 24 hours (Table 14). In Stage 2, PK was measured on days 1 and 6 of the randomization period pre-medication, at 1, 2, 4 and 8 hours (Table 15). […] Hao et al. 2003). The mean Cmax, Tmax and T1/2 and AUC of the squalamine ion following squalamine (ENT-01) oral dosing for Stage 1 patients. […] The mean Cmax, Tmax and T1/2 and AUC of the squalamine ion following squalamine (ENT-01) oral dosing for Stage 2 patients. The PK analyses are only approximate, as the lower limit of the validated concentration range was 0.5 ng/ml.

patients with PD = assay: Phase 2 trial Stage 2: circadian rhythm of wrist skin temperature (I-Button); assay type: in vivo, human
Experimental: FIGS. 20A-F show the effect of squalamine (ENT-01) on circadian rhythm. The figures depict the results of circadian non-parametric analysis of wrist skin temperature rhythm throughout each condition (baseline, treatment with highest dose of squalamine (ENT-01) and washout). The following parameters were measured: […] (FIG. 20A), inter-daily stability (IS) (FIG. 20B), relative amplitude (RA) (FIG. 20C), circadian function index (FIG. 20D), M5V (FIG. 20E), which refers to the five consecutive hours with the highest temperature or high somnolence, and L10V (FIG. 20F), which indicates the mean of the ten consecutive hours with lowest temperature or high activation. […] Student's paired t-test, *p<0.05, **p<01, ***p<0.001.Values expressed as mean±SEM (n=12 in each condition).
(6) I-Button Temperature Assessment. […] From the collected data, the mesor, amplitude, acrophase (time of peak temperature), Rayleight test (an index of interdaily stability), mean waveforms are calculated.);
Circadian rhythm of skin temperature was evaluable in 12 patients (i.e., those who had recordings that extended from baseline through washout). Circadian system functionality was evaluated by continuously monitoring wrist skin temperature using a temperature sensor (Thermochron iButton DS1921H; Maxim, Dallas, Tex.) (Sarabia et al. 2008). […]

CC(C)[C@@H](CC[C@@H](C)[C@H]1CC[C@H]2[C@@H]3[C@H](O)C[C@H]4C[C@@H](NCCCNCCCCN)CC[C@]4(C)[C@H]3CC[C@]12C)OS(=O)(=O)O (single isomer, unassigned; ent-01) [ENT-01]
approximate oral bioavailability ([1]; Stage 1, oral dosing up to 200 mg (114 mg/m^2), compared with prior phase 1 IV pharmacokinetic data): about 0.1% | AUC0-8 hr ([1]; dose 25 mg): 10.8 ng·h/mL | AUC0-16 hr ([1]; dose 25 mg): 19.6 ng·h/mL | Tmax (Median Value) ([1]; dose 25 mg): 1.0 h | Cmax ([1]; dose 25 mg): 2.84 ng/mL | AUC0-8 hr ([1]; dose 50 mg): 18.5 ng·h/mL | AUC0-16 hr ([1]; dose 50 mg): 33.1 ng·h/mL | Tmax (Median Value) ([1]; dose 50 mg): 2.0 h | Cmax ([1]; dose 50 mg): 3.73 ng/mL | AUC0-8 hr ([1]; dose 75 mg): 18.4 ng·h/mL | AUC0-16 hr ([1]; dose 75 mg): 29.8 ng·h/mL | Tmax (Median Value) ([1]; dose 75 mg): 2.0 h | Cmax ([1]; dose 75 mg): 4.33 ng/mL | AUC0-8 hr ([1]; dose 100 mg): 29.6 ng·h/mL | AUC0-16 hr ([1]; dose 100 mg): 51.5 ng·h/mL | Tmax (Median Value) ([1]; dose 100 mg): 2.0 h | Cmax ([1]; dose 100 mg): 6.18 ng/mL | AUC0-8 hr ([1]; dose 125 mg): 43.1 ng·h/mL | AUC0-16 hr ([1]; dose 125 mg): 77.7 ng·h/mL | Tmax (Median Value) ([1]; dose 125 mg): 2.0 h | Cmax ([1]; dose 125 mg): 9.63 ng/mL | AUC0-8 hr ([1]; dose 150 mg): 31.5 ng·h/mL | AUC0-16 hr ([1]; dose 150 mg): 64.0 ng·h/mL | Tmax (Median Value) ([1]; dose 150 mg): 2.0 h | Cmax ([1]; dose 150 mg): 6.27 ng/mL | AUC0-8 hr ([1]; dose 175 mg): 49.7 ng·h/mL | AUC0-16 hr ([1]; dose 175 mg): 91.2 ng·h/mL | Tmax (Median Value) ([1]; dose 175 mg): 2.0 h | Cmax ([1]; dose 175 mg): 10.3 ng/mL | AUC0-8 hr ([1]; dose 200 mg): 78.3 ng·h/mL | AUC0-16 hr ([1]; dose 200 mg): 157 ng·h/mL | Tmax (Median Value) ([1]; dose 200 mg): 2.0 h | Cmax ([1]; dose 200 mg): 15.1 ng/mL | oral bio-availability ([1]; estimated from PK of intravenously administered squalamine in prior clinical studies): less than 0.3% | markers of healthy circadian function (IS, RA, CFI, IV) (patients with PD; fixed dose vs baseline, 12 patients): improved all markers of healthy circadian function | circadian parameters (IS, CFI) (patients with PD; wash-out period): improvement persisted
